Results published in US20250127162A1, “METHODS AND COMPOSITIONS FOR CONTROLLING PESTS IN RICE” (Globachem NV, priority 2022, published 2025).

Test system: Chilo suppressalis
Test: Rice field trials, Chilo suppressalis insect damage / white heads (Example 1, Trials 3-4, Thailand)
Assay type: in vivo
Settings: Trial 3
Experimental: All applications were made with an EC formulation containing 650 g/L of pelargonic acid (e.g., 685 g/L of 95% purity pelargonic acid), an anionic emulsifier and a branched fatty acid ester solvent. […] Trials 1 4 assessing the use of pelargonic acid for controlling Chilo suppressalis in rice were conducted in Spain and Thailand. Application A was made to the crops at the beginning of infestations; for these trials, Stage BBCH 59; Application B was made 14 days after Application A. Trial 3 was conducted in Thailand using a water volume of 500 L/ha of water per application unless otherwise indicated. Insect Damage ([…] %), Insect Damage (Number) and Phytotoxicity were assessed at various treatment evaluation intervals. Population levels were recorded by counting number of rice plants per hill, number of white head (damage from rice stem borer) followed by calculation of % insect damage. Trial 4 was conducted in Thailand using a water volume of 500 L/ha of water per application unless otherwise indicated. Insect Damage ([…] %), Insect Damage (Number) and Phytotoxicity were assessed at various treatment evaluation intervals. Population levels were recorded by counting number of rice plants per hill, number of white head (damage from rice stem borer) followed by calculation of % insect damage.

[1] = 0 DAA, water volume 500 L/ha, rate in treatment name, Prevathon 0.5 L/ha, listed as PA 585 g/ha
[2] = 0 DAA, water volume 500 L/ha, rate in treatment name, Prevathon 0.5 L/ha, listed as PA 975 g/ha
[3] = 0 DAA, water volume 500 L/ha, rate in treatment name, Prevathon 0.5 L/ha, listed as PA 1300 g/ha
[4] = 0 DAA, water volume 500 L/ha, rate in treatment name, Prevathon 0.5 L/ha, listed as PA 2600 g/ha
[5] = 0 DAB, water volume 500 L/ha, rate in treatment name, Prevathon 0.5 L/ha, listed as PA 585 g/ha
[6] = 0 DAB, water volume 500 L/ha, rate in treatment name, Prevathon 0.5 L/ha, listed as PA 975 g/ha
[7] = 0 DAB, water volume 500 L/ha, rate in treatment name, Prevathon 0.5 L/ha, listed as PA 1300 g/ha
[8] = 0 DAB, water volume 500 L/ha, rate in treatment name, Prevathon 0.5 L/ha, listed as PA 2600 g/ha
[9] = 7 DAA, water volume 500 L/ha, rate in treatment name, Prevathon 0.5 L/ha, listed as PA 585 g/ha
[10] = 7 DAA, water volume 500 L/ha, rate in treatment name, Prevathon 0.5 L/ha, listed as PA 975 g/ha
[11] = 7 DAA, water volume 500 L/ha, rate in treatment name, Prevathon 0.5 L/ha, listed as PA 1300 g/ha
[12] = 7 DAA, water volume 500 L/ha, rate in treatment name, Prevathon 0.5 L/ha, listed as PA 2600 g/ha
[13] = 7 DAB, water volume 500 L/ha, rate in treatment name, Prevathon 0.5 L/ha, listed as PA 585 g/ha
[14] = 7 DAB, water volume 500 L/ha, rate in treatment name, Prevathon 0.5 L/ha, listed as PA 975 g/ha
[15] = 7 DAB, water volume 500 L/ha, rate in treatment name, Prevathon 0.5 L/ha, listed as PA 1300 g/ha
[16] = 7 DAB, water volume 500 L/ha, rate in treatment name, Prevathon 0.5 L/ha, listed as PA 2600 g/ha
[17] = 10 DAA, water volume 500 L/ha, rate in treatment name, Prevathon 0.5 L/ha, listed as PA 585 g/ha
[18] = 10 DAA, water volume 500 L/ha, rate in treatment name, Prevathon 0.5 L/ha, listed as PA 975 g/ha
[19] = 10 DAA, water volume 500 L/ha, rate in treatment name, Prevathon 0.5 L/ha, listed as PA 1300 g/ha
[20] = 10 DAA, water volume 500 L/ha, rate in treatment name, Prevathon 0.5 L/ha, listed as PA 2600 g/ha
[21] = 10 DAB, water volume 500 L/ha, rate in treatment name, Prevathon 0.5 L/ha, listed as PA 585 g/ha
[22] = 10 DAB, water volume 500 L/ha, rate in treatment name, Prevathon 0.5 L/ha, listed as PA 975 g/ha
[23] = 10 DAB, water volume 500 L/ha, rate in treatment name, Prevathon 0.5 L/ha, listed as PA 1300 g/ha
[24] = 10 DAB, water volume 500 L/ha, rate in treatment name, Prevathon 0.5 L/ha, listed as PA 2600 g/ha
[25] = 14 DAB, water volume 500 L/ha, rate in treatment name, Prevathon 0.5 L/ha, listed as PA 585 g/ha
[26] = 14 DAB, water volume 500 L/ha, rate in treatment name, Prevathon 0.5 L/ha, listed as PA 975 g/ha
[27] = 14 DAB, water volume 500 L/ha, rate in treatment name, Prevathon 0.5 L/ha, listed as PA 1300 g/ha
[28] = 14 DAB, water volume 500 L/ha, rate in treatment name, Prevathon 0.5 L/ha, listed as PA 2600 g/ha
[29] = 21 DAB, water volume 500 L/ha, rate in treatment name, Prevathon 0.5 L/ha, listed as PA 585 g/ha
[30] = 21 DAB, water volume 500 L/ha, rate in treatment name, Prevathon 0.5 L/ha, listed as PA 975 g/ha
[31] = 21 DAB, water volume 500 L/ha, rate in treatment name, Prevathon 0.5 L/ha, listed as PA 1300 g/ha

CCCCCCCCC(=O)O [PA 650 g/ha, pelargonic acid]
DAMINS % (insect damage, % white heads) (0 DAA, water volume 200 L/ha): 0.83% | DAMINS (number): mean number of insect damage (white head symptoms) (0 DAA, water volume 200 L/ha): 3.4 | DAMINS % (insect damage, % white heads) [1]: 0.79% | DAMINS (number): mean number of insect damage (white head symptoms) [1]: 3.23 | DAMINS % (insect damage, % white heads) [2]: 0.9% | DAMINS (number): mean number of insect damage (white head symptoms) [2]: 3.8 | DAMINS % (insect damage, % white heads) [3]: 0.75% | DAMINS (number): mean number of insect damage (white head symptoms) [3]: 3.11 | DAMINS % (insect damage, % white heads) [4]: 0.74% | DAMINS (number): mean number of insect damage (white head symptoms) [4]: 3.14 | DAMINS % (insect damage, % white heads) (0 DAB, water volume 200 L/ha): 0.25% | DAMINS (number): mean number of insect damage (white head symptoms) (0 DAB, water volume 200 L/ha): 0.94 | DAMINS % (insect damage, % white heads) [5]: 0.6% | DAMINS (number): mean number of insect damage (white head symptoms) [5]: 2.54 | DAMINS % (insect damage, % white heads) [6]: 0.46% | DAMINS (number): mean number of insect damage (white head symptoms) [6]: 1.91 | DAMINS % (insect damage, % white heads) [7]: 0.39% | DAMINS (number): mean number of insect damage (white head symptoms) [7]: 1.61 | DAMINS % (insect damage, % white heads) [8]: 0.29% | DAMINS (number): mean number of insect damage (white head symptoms) [8]: 1.23 | DAMINS % (insect damage, % white heads) (7 DAA, water volume 200 L/ha): 0.29% | DAMINS (number): mean number of insect damage (white head symptoms) (7 DAA, water volume 200 L/ha): 1.16 | DAMINS % (insect damage, % white heads) [9]: 0.65% | DAMINS (number): mean number of insect damage (white head symptoms) [9]: 2.93 | DAMINS % (insect damage, % white heads) [10]: 0.53% | DAMINS (number): mean number of insect damage (white head symptoms) [10]: 2.13 | DAMINS % (insect damage, % white heads) [11]: 0.4% | DAMINS (number): mean number of insect damage (white head symptoms) [11]: 1.74 | DAMINS % (insect damage, % white heads) [12]: 0.39% | DAMINS (number): mean number of insect damage (white head symptoms) [12]: 1.79 | DAMINS % (insect damage, % white heads) (7 DAB, water volume 200 L/ha): 0.55% | DAMINS (number): mean number of insect damage (white head symptoms) (7 DAB, water volume 200 L/ha): 2.4 | DAMINS % (insect damage, % white heads) [13]: 0.84% | DAMINS (number): mean number of insect damage (white head symptoms) [13]: 3.82 | DAMINS % (insect damage, % white heads) [14]: 0.73% | DAMINS (number): mean number of insect damage (white head symptoms) [14]: 3.31 | DAMINS % (insect damage, % white heads) [15]: 0.64% | DAMINS (number): mean number of insect damage (white head symptoms) [15]: 2.84 | DAMINS % (insect damage, % white heads) [16]: 0.49% | DAMINS (number): mean number of insect damage (white head symptoms) [16]: 2.24 | DAMINS % (insect damage, % white heads) (10 DAA, water volume 200 L/ha): 0.25% | DAMINS (number): mean number of insect damage (white head symptoms) (10 DAA, water volume 200 L/ha): 0.99 | DAMINS % (insect damage, % white heads) [17]: 0.63% | DAMINS (number): mean number of insect damage (white head symptoms) [17]: 2.92 | DAMINS % (insect damage, % white heads) [18]: 0.58% | DAMINS (number): mean number of insect damage (white head symptoms) [18]: 2.26 | DAMINS % (insect damage, % white heads) [19]: 0.41% | DAMINS (number): mean number of insect damage (white head symptoms) [19]: 1.77 | DAMINS % (insect damage, % white heads) [20]: 0.31% | DAMINS (number): mean number of insect damage (white head symptoms) [20]: 1.49 | DAMINS % (insect damage, % white heads) (10 DAB, water volume 200 L/ha): 0.44% | DAMINS (number): mean number of insect damage (white head symptoms) (10 DAB, water volume 200 L/ha): 1.84 | DAMINS % (insect damage, % white heads) [21]: 0.71% | DAMINS (number): mean number of insect damage (white head symptoms) [21]: 3.39 | DAMINS % (insect damage, % white heads) [22]: 0.66% | DAMINS (number): mean number of insect damage (white head symptoms) [22]: 3.11 | DAMINS % (insect damage, % white heads) [23]: 0.38% | DAMINS (number): mean number of insect damage (white head symptoms) [23]: 1.65 | DAMINS % (insect damage, % white heads) [24]: 0.33% | DAMINS (number): mean number of insect damage (white head symptoms) [24]: 1.39 | DAMINS % (insect damage, % white heads) (14 DAB, water volume 200 L/ha): 0.39% | DAMINS (number): mean number of insect damage (white head symptoms) (14 DAB, water volume 200 L/ha): 1.53 | DAMINS % (insect damage, % white heads) [25]: 0.56% | DAMINS (number): mean number of insect damage (white head symptoms) [25]: 2.35 | DAMINS % (insect damage, % white heads) [26]: 0.64% | DAMINS (number): mean number of insect damage (white head symptoms) [26]: 2.82 | DAMINS % (insect damage, % white heads) [27]: 0.45% | DAMINS (number): mean number of insect damage (white head symptoms) [27]: 1.94 | DAMINS % (insect damage, % white heads) [28]: 0.3% | DAMINS (number): mean number of insect damage (white head symptoms) [28]: 1.25 | DAMINS % (insect damage, % white heads) (21 DAB, water volume 200 L/ha): 0.36% | DAMINS (number): mean number of insect damage (white head symptoms) (21 DAB, water volume 200 L/ha): 1.47 | DAMINS % (insect damage, % white heads) [29]: 0.8% | DAMINS (number): mean number of insect damage (white head symptoms) [29]: 3.41 | DAMINS % (insect damage, % white heads) [30]: 0.6% | DAMINS (number): mean number of insect damage (white head symptoms) [30]: 2.7 | DAMINS % (insect damage, % white heads) [31]: 0.39% | DAMINS (number): mean number of insect damage (white head symptoms) [31]: 1.64
